# US4999344A, “Phosphatidyl treatment of rapidly proliferating cells” (priority 1988, dated 1991)
# Columns and labels:
# [1] = test system: N4TG1 neuroblastoma cells; assay: Fate of liposomal PI after incubation with N4TG1 neuroblastoma cells; format: in vitro ADME, mouse
# Source text: Lipids were dried and resuspended exactly as described previously in the Biochem. Biophys. Res. Commun. article. In the use of ([^14 C]linoleoyl)PI, ([^14 C]oleoyl)PI, or ([^14 C]arachidonoyl)PI the phospholipids were used in a 2:1 molar combination with cholesterol. Cholesterol was included in the liposomes in order to minimize the net transfer of cholesterol into or out of the cells. ([^3 H]myo-Inositol)PI was used as a tracer (1%) with bovine liver PI as the bulk phospholipid carrier for forming liposomes. [^3 H]Linoleic acid was used as a tracer (4%) in liposomes containing linoleic acid:PI (yeast or animal): cholesterol, 2:1. […]
# In order to extract lipids, methanol and chloroform were added to cell homogenates to obtain a single phase of CHCl3 :CH3 OH:H2 O (1:2:1 8, v/v) containing 0.1M HCl, according to Bligh and Dyer in Can. […] The lipid compositions of the cell extracts were determined by thin layer chromatography on silica gel precoated sheets (E. M. Reagents; E. Merck, FRG) using the following solvent systems: (a) chloroform:methanol: acetic acid:water, 25:15:4:2 (v/v) (used for phospholipid separation): (b) 1-propanol:4.3M ammonia containing 10 mM EDTA, 65:35 (v/v) (used for PIP and PIP2 separations); and (c) chloroform:acetone, 1:1 (v/v) (used for DG and fatty acid separations). […]
# [2] = test system: HT-144; assay: Liposomal uptake by normal and tumor cells; format: cell-based, human; conditions: tumor cells HT-144
# Protocol: (§1) Cells were treated with liposomes containing synthetic preparations of PI (left frames) or PC (right frames) containing palmitic acid in the sn-1 position and either [^14 C]linoleic acid in the sn-2 position (FIGS. 5 and 5a) or [^14 C]arachidonic acid in the sn-2 position (FIGS. 6 and 6a) or [^14 C]oleic acid in the sn-2 position (FIGS. 7 and 7a). The liposomes were comprised of the indicated phospholipids (PI or PC) and cholesterol in a molar ratio of 2:1.
# (§2) The data in Table 5 was obtained concomitantly with the toxicity studies in FIGS. 5-7a.
# [3] = test system: N4TG1; assay: Liposomal uptake by normal and tumor cells; format: cell-based, mouse; conditions: tumor cells N4TG1
# Protocol: (§3) Thymidine uptake is a method of assessing cell viability of cultured cells, and decreased thymidine uptake occurs as a result of cytotoxicity caused by contact with toxic substances. , MRC-5 normal embryonic lung fibroblasts; , W1-38SV/40 transformed embryonic human lung fibroblasts; .quadrature..quadrature., SK-N-MC human glioblastoma cells and , N4TG1 mouse neuroblastoma cells.
# as §1, §2
# [4] = test system: MRC-5; assay: Liposomal uptake by normal and tumor cells; format: cell-based; conditions: normal cells MRC-5
# Protocol: as §3, §1, §2
# [5] = test system: WI-38/SV-40; assay: Liposomal uptake by normal and tumor cells; format: cell-based, human
# Protocol: as §3, §1, §2
# [6] = test system: SK-N-MC; assay: Liposomal uptake by normal and tumor cells; format: cell-based, human; conditions: tumor cells SK-N-MC
# Protocol: as §3, §1, §2
# [7] = test system: N4TG1 neuroblastoma cells; assay: Thymidine uptake (cell viability) by N4TG1 neuroblastoma cells incubated with liposomes; format: cell-based, mouse
# Protocol: Plant PI(S) is from the Sigma Chemical Company and plant PI(A) is from Avanti Polar Lipids, Inc. and ([^14 C]linoleoyl)PI is the synthetic PI.
# FIGS. 3a and 3b show the effect of increasing the molar fraction of synthetic PI or animal PI in liposomes on (a) thymidine uptake (FIG. 3a) and myo-inositol uptake (FIG. 3b) by N4TG1 neuroblastoma cells, .circle. 100 μm PI, 200 μm PI, 300 μm PI. Cells were incubated with liposomes made up of the various combinations indicated (mol %) of ([^14 C]linoleoyl)PI and animal PI.
# FIGS. 9a, b, c, and d show the effect of inhibitors on PI toxicity to tumor cells.
# (§4) Lipids were dried and resuspended exactly as described previously in the Biochem. Biophys. Res. Commun. article. In the use of ([^14 C]linoleoyl)PI, ([^14 C]oleoyl)PI, or ([^14 C]arachidonoyl)PI the phospholipids were used in a 2:1 molar combination with cholesterol. Cholesterol was included in the liposomes in order to minimize the net transfer of cholesterol into or out of the cells. ([^3 H]myo-Inositol)PI was used as a tracer (1%) with bovine liver PI as the bulk phospholipid carrier for forming liposomes. [^3 H]Linoleic acid was used as a tracer (4%) in liposomes containing linoleic acid:PI (yeast or animal): cholesterol, 2:1. It was shown that it is not necessary to have cholesterol present to observe the cytotoxicity.
# The N4TG1 mouse neuroblastoma cell line was obtained from Dr. Peter Chiang (Walter Reed Army Institute of Research) and cultured using Dulbecco's minimal essential medium (MEM: Grand Island Biological Co.) containing 10% fetal bovine serum. Cells were routinely started from frozen cultures every 6 weeks in order to assure that the cells used were from low passage cultures.
# [methyl-^3 H]Thymidine (New England Nuclear) incorporation was carried out using 96-well plates (Costar). Thymidine incorporation was used as an assay for cell viability, since in the previous studies described in the Biochem. Biophys. Res. Commun. (1983) article, other methods of assessing cell viability, including microscopic evaluation in the presence of trypan blue, gave identical results. Fifty μl of cell suspension (4×10^5 cells/ml) were added to duplicate wells. Approximately 18 hours later 25 μl of the PI-containing liposomes were added to give a final concentration of phospholipid of 200 μM (approximately, 14 nmol/2-3×10^4 cells). At various intervals after PI addition [^3 H]thymidine, 1 μCi/well was added and incubated with the cells for 3 hours. Cells were collected on glass fiber filter mats by a mechanical cell harvester (Skatron, Inc.) using a combination of scraping and fluid turbulence (saline). Filters were dried and the material was solubilized by incubation overnight with NCS tissue solubilizer and counted in the presence of Spectrafluor (Amersham).
# In FIGS. 1 and 2 the curves were quite reproducible and representative experiments are shown. Because of fluctuations (<5%) in control values, the data were "normalized" by comparison with daily controls and expressed as "percentage of control in absence of PI." Typical values for uptake of [^3 H]thymidine by controls are shown in the inserts in FIGS. 1 and 2.
# [8] = test system: N4TG1 neuroblastoma cells; assay: Cellular uptake of linoleic acid from liposomes (tracer 3H-linoleic acid); format: cell-based, mouse
# Source text: as §4
# Cellular uptake of linoleic acid was calculated based on uptake of tracer ^3 H-linoleic acid. In Table 1 intracellularly generated free fatty acids occurred at a concentration of 2.2 nmol/8×10^5 cells. […] In the case of liposomes containing yeast PI as the phospholipid, the uptake of linoleic acid was 2.9 nmol/8×10^5 cells and the thymidine incorporation had decreased to 53% of control values. Although toxicity occurred at similar concentrations of fatty acids as were generated intracellularly it must be kept in mind that in the experiment in Table 2 there were also extracellular free fatty acids which could exert effects on the outer surface of the cells.
# [9] = test system: N4TG1 neuroblastoma cells; assay: Effect on cells by linoleic acid in liposomes made of non-cytotoxic phospholipids (thymidine uptake); format: cell-based, mouse
# Source text: as §4
# The N4TG1 mouse neuroblastoma cell line was obtained from Dr. Peter Chiang (Walter Reed Army Institute of Research) and cultured using Dulbecco's minimal essential medium (MEM: Grand Island Biological Co.) containing 10% fetal bovine serum. […]
# [methyl-^3 H]Thymidine (New England Nuclear) incorporation was carried out using 96-well plates (Costar). […] Filters were dried and the material was solubilized by incubation overnight with NCS tissue solubilizer and counted in the presence of Spectrafluor (Amersham). […]
# Cellular uptake of linoleic acid was calculated based on uptake of tracer ^3 H-linoleic acid. […]
# [10] = test system: lung small cell carcinoma cultures (NCI-H128); assay: Toxicity to lung small cell carcinoma cultures, based on thymidine uptake, with inhibitors; parameters: species or system human; conditions: FIGS. 9c and 9d; for blocking of plant PI toxicity / competition: with plant PI
# Source text: FIGS. 9c and 9d show the effects of inhibitors of phospholipase A2 (quinacrine) or prostaglandin synthesis (eicosanotetraynoic acid) or leukotriene synthesis ([…]) on cytotoxicity induced by liposomes containing plant PI/cholesterol/([^14 C]linoleoyl)PI (2/1/0.01). The NCI-H128 cells are a small cell lung carcinoma cultured cell line
# Several specific inhibitors were used with lung small cell carcinoma cultures. […] In humans, this type of lung cancer is fatal very soon after detection.
Structure (SMILES),Liposomal uptake [2],Liposomal uptake [3],Liposomal uptake [4],Liposomal uptake [5],Liposomal uptake [6],cytotoxicity [7],blocking of plant PI toxicity / competition [10],also measured
CCCCC/C=C\C/C=C\C/C=C\C/C=C\CCC[14C](=O)O[C@H](COC(=O)CCCCCCCCCCCCCCCCC)COP(=O)(O)O[C@@H]1[C@H](O)[C@H](O)[C@@H](O)[C@H](O)[C@H]1O [([^14 C]arachidonoyl)PI],0.55 nMoles of phospholipid/1 × 10^5 cells,0.49 nMoles of phospholipid/1 × 10^5 cells,0.09 nMoles of phospholipid/1 × 10^5 cells,0.33 nMoles of phospholipid/1 × 10^5 cells,0.39 nMoles of phospholipid/1 × 10^5 cells,considerable cytotoxicity,–,Phosphatidylcholine [1]: Not Detected
"CCCCCCCC/C=C\CCCCCCC[14C](=O)O[C@H](COC(=O)CCCCCCCCCCCCCCCCC)COP(=O)(O)O[C@@H]1[C@H](O)[C@H](O)[C@@H](O)[C@H](O)[C@H]1O [([^14 C]oleoyl)PI, reference compound]",0.28 nMoles of phospholipid/1 × 10^5 cells,0.28 nMoles of phospholipid/1 × 10^5 cells,0.13 nMoles of phospholipid/1 × 10^5 cells,0.21 nMoles of phospholipid/1 × 10^5 cells,0.28 nMoles of phospholipid/1 × 10^5 cells,lacked cytotoxicity,–,–
"CCCCC/C=C\C/C=C\CCCCCCCC(=O)O [Linoleic acid, linoleic acid]",–,–,–,–,–,–,–,"uptake of linoleic acid ([8]; 50 μM, Animal Phosphatidylinositol liposomes): 2.55 nmol/8 × 10^5 cells; uptake of linoleic acid ([8]; 50 μM, Yeast Phosphatidylinositol liposomes): 1.8 nmol/8 × 10^5 cells; uptake of linoleic acid ([8]; 100 μM, Animal Phosphatidylinositol liposomes): 3.03 nmol/8 × 10^5 cells; uptake of linoleic acid ([8]; 100 μM, Yeast Phosphatidylinositol liposomes): 2.9 nmol/8 × 10^5 cells; uptake of linoleic acid ([8]; 200 μM, Animal Phosphatidylinositol liposomes): 10.4 nmol/8 × 10^5 cells; uptake of linoleic acid ([8]; 200 μM, Yeast Phosphatidylinositol liposomes): 14.8 nmol/8 × 10^5 cells; decrease in thymidine incorporation compared with controls ([9]; liposomes with animal PI, uptake 2.55 nmol/8×10^5 cells): 63%; thymidine incorporation ([9]; liposomes with yeast PI, uptake 2.9 nmol/8×10^5 cells): 53 % of control values"
"CCN(CC)CCCC(C)Nc1c2ccc(Cl)cc2nc2ccc(OC)cc12 (stereo not drawn) [Quinacrine, quinacrine, reference compound]",–,–,–,–,–,–,No competition was observed,"toxicity [10]: extremely toxic; effect of quinacrine on cytotoxicity of plant PI ([7]; in conjunction with plant PI, FIG. 9b): reversal of cytotoxicity; cytotoxicity of quinacrine alone ([7]; tumor or normal cells, FIG. 9a): somewhat cytotoxic"
CCCCCC#CCC#CCC#CCC#CCCCC(=O)O [eicosanotetraynoic acid],–,–,–,–,–,–,relatively little promise of blocking the toxicity of plant PI,–
"COc1ccc2c(c1)c(CC(=O)O)c(C)n2C(=O)c1ccc(Cl)cc1 [indomethecin, indomethacin]",–,–,–,–,–,–,relatively little promise of blocking the toxicity of plant PI,–
